Measured values published in patent publication US20170190705A1, “Compositions and Methods for Inhibiting BMP” (THE BRIGHAM AND WOMAN'S HOSPITAL, INC., priority 2014, published 2017).
Like-named read-outs stand apart in the source and are kept apart here.

Key:
Type in all cases: biochemical
PAK6 = PAK6 (Homo sapiens, UniProt Q9NQU5); assay: Kinome profiling PAK6; conditions: read-out: Inhibitory activity PAK6; for inhibition at 0.1 µM: 100 nM
Protocol: (§1) . The kinome-wide selectivity was determined following the methods previously reported by Mohedas et al., ACS Chem Biol 2013, 8, 1291-1302 and Sanvitale et al., PLoS One 2013, 8, e62721.

AURORA-A = molecular target: T1, AURORA-A (Homo sapiens, UniProt O14965); assay: Kinome profiling AURORA-A; conditions: read-out: Inhibitory activity AURORA-A; for inhibition at 0.1 µM: 100 nM
T1 sequence (O14965 1-403): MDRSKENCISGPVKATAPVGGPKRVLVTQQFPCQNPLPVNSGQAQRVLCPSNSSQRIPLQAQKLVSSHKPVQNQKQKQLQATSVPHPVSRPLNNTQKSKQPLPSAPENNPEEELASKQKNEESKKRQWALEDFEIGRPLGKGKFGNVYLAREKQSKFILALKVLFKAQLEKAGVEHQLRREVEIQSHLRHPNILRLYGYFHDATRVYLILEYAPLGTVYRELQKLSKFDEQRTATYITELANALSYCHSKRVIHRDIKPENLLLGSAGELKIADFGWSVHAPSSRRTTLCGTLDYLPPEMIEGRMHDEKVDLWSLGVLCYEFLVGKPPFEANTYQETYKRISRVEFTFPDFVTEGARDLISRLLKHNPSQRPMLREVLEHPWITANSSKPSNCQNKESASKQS
Protocol: as §1

PI3-K-δ = PI3-K-δ (Homo sapiens, UniProt O00329); assay: Kinome profiling PI3-K-δ; conditions: read-out: Inhibitory activity PI3-K-δ; for inhibition at 0.1 µM: 100 nM
PI3-K-δ, sequence (O00329 whole entry): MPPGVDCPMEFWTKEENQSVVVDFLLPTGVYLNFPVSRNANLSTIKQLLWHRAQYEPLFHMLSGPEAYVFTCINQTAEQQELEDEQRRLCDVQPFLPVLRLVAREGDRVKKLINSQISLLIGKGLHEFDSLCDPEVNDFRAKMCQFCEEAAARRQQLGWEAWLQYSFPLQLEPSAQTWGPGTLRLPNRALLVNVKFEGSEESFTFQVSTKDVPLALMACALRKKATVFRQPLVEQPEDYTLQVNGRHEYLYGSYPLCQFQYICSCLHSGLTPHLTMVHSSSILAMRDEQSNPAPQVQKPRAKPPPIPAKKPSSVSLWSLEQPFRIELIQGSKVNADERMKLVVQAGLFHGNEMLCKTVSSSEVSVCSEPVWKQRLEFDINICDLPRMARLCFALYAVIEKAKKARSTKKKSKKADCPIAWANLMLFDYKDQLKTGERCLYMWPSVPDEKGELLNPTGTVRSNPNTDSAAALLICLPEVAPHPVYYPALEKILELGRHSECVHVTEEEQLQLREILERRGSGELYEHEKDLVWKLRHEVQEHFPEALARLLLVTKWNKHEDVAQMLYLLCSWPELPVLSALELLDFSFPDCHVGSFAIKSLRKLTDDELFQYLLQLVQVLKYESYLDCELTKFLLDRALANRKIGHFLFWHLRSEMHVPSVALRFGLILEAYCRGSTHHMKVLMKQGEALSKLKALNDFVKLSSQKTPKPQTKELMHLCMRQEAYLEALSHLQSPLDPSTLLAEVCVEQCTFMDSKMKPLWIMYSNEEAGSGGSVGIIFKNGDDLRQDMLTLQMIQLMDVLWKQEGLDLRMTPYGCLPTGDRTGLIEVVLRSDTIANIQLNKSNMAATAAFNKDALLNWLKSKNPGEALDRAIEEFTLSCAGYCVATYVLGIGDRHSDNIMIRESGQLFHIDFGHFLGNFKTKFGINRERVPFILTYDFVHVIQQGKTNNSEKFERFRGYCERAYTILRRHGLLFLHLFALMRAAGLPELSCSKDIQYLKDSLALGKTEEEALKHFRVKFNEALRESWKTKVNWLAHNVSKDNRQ
PI3-K-δ, sequence (P27986 whole entry partner): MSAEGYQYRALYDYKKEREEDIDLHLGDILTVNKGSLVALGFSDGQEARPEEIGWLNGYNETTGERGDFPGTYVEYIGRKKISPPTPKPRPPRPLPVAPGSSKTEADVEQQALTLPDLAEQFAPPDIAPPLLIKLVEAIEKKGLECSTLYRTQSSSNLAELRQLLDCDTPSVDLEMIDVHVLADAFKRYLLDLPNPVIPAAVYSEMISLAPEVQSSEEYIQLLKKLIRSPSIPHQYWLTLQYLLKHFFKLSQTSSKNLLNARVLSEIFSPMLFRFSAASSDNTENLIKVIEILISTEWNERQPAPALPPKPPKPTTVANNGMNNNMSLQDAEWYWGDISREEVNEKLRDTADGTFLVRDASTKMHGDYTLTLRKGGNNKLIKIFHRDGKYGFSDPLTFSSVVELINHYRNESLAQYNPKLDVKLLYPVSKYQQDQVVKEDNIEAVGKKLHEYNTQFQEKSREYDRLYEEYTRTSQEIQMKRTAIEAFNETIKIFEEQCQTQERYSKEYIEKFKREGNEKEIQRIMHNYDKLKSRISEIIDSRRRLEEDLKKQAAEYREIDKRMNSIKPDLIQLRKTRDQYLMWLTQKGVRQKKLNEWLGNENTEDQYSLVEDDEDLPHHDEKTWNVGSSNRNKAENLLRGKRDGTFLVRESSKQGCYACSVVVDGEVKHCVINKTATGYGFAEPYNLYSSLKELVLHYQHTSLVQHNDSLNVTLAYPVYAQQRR
Protocol: as §1

PIM-2 = PIM-2 (Homo sapiens, UniProt Q9P1W9); assay: Kinome profiling PIM-2; conditions: read-out: Inhibitory activity PIM-2; for inhibition at 0.1 µM: 100 nM
Protocol: as §1

SYK = SYK (Homo sapiens, UniProt P43405); assay: Kinome profiling SYK; conditions: read-out: Inhibitory activity SYK; for inhibition at 0.1 µM: 100 nM
Protocol: as §1

PI4-K-β = PI4-K-β (Homo sapiens, UniProt Q9UBF8); assay: Kinome profiling PI4-K-β; conditions: read-out: Inhibitory activity PI4-K-β; for inhibition at 0.1 µM: 100 nM
PI4-K-β, sequence (Q9UBF8 whole entry): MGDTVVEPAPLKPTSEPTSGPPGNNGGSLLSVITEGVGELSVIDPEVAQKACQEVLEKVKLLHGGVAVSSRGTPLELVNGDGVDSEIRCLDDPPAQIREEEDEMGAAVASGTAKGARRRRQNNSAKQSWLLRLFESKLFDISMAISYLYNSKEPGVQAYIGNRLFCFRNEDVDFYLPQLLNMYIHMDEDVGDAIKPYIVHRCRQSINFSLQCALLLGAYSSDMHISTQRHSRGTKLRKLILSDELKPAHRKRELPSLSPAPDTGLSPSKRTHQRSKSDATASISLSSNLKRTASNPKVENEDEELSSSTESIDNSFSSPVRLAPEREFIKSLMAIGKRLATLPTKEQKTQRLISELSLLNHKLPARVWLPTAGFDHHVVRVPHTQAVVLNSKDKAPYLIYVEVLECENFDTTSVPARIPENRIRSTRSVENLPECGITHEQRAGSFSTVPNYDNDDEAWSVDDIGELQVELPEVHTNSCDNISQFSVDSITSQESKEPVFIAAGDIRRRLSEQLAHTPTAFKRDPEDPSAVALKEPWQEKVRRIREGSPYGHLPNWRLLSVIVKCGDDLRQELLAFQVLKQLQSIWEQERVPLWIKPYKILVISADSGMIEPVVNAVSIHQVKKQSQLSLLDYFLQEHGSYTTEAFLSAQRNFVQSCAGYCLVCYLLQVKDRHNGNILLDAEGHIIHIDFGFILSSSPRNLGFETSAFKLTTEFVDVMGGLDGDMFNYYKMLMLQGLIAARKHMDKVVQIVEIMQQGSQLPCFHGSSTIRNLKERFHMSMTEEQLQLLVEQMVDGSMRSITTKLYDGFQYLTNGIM
Protocol: as §1

NEK7 = NEK7 (Homo sapiens, UniProt Q8TDX7); assay: Kinome profiling NEK7; conditions: read-out: Inhibitory activity NEK7; for inhibition at 0.1 µM: 100 nM
NEK7, sequence (Q8TDX7 whole entry): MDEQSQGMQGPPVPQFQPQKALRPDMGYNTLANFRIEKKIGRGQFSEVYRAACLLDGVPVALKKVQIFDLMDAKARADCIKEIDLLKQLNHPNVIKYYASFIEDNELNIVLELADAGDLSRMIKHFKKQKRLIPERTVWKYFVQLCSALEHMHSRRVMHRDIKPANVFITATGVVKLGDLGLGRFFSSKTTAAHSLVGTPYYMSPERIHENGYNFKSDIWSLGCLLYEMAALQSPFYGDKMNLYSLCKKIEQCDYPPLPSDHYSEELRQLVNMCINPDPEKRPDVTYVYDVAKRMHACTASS
Protocol: as §1

ABL1 = ABL1 (Homo sapiens, UniProt P00519); assay: Kinome profiling ABL1; conditions: for inhibition at 0.1 µM: 100 nM
Protocol: as §1

DAPK1 = DAPK1 (Homo sapiens, UniProt P53355); assay: Kinome profiling DAPK1; conditions: read-out: Inhibitory activity DAPK1; for inhibition at 0.1 µM: 100 nM
DAPK1, sequence (P53355 whole entry): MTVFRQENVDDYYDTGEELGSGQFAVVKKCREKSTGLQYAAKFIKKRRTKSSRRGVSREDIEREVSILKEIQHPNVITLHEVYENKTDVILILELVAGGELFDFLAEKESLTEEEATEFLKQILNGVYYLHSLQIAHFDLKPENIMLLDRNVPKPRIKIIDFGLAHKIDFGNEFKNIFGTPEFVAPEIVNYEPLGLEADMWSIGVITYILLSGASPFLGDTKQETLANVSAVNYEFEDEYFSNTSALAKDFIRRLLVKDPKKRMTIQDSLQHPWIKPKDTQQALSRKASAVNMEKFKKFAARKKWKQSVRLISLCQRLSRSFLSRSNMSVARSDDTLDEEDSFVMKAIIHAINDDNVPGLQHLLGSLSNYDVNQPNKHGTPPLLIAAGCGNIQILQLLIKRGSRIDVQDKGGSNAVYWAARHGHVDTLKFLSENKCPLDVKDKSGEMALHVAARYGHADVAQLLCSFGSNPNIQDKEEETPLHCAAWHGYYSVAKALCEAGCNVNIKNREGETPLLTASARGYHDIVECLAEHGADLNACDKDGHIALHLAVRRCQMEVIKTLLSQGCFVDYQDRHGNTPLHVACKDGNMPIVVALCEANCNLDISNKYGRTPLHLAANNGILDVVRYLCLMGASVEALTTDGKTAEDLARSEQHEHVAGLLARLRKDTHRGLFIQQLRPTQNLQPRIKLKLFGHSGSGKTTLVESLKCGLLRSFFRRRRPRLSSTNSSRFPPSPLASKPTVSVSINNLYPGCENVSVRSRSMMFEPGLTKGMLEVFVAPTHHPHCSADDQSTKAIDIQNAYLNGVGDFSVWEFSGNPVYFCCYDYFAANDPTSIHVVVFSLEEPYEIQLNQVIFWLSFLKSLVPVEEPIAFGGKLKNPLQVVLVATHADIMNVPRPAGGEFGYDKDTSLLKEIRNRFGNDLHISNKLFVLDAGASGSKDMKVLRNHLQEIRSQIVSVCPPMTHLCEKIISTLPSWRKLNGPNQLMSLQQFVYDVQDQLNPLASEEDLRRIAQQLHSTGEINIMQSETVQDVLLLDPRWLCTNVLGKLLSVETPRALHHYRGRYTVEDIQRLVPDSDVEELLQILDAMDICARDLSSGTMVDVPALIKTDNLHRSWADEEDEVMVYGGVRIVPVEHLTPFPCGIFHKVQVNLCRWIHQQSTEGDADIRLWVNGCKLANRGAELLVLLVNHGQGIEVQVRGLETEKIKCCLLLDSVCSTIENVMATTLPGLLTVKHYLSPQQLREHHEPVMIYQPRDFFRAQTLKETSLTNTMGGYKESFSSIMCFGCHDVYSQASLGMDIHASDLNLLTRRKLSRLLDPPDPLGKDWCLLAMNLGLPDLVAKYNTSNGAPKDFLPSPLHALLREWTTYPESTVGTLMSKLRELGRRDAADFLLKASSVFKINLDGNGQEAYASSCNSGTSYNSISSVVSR
Protocol: as §1

CDK3/cyclinE = CDK3/cyclinE (Homo sapiens, UniProt Q00526); assay: Kinome profiling CDK3/cyclinE; conditions: read-out: Inhibitory activity CDK3/cyclinE; for inhibition at 0.1 µM: 100 nM
CDK3/cyclinE, sequence (Q00526 whole entry): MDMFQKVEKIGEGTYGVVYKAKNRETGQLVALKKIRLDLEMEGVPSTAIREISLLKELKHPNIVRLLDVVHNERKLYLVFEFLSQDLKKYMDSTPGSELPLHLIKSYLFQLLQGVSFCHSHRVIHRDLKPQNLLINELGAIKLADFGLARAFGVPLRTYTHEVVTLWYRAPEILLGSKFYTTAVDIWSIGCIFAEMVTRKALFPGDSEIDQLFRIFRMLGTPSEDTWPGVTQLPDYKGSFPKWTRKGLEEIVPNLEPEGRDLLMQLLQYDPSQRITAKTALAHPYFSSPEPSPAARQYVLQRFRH
CDK3/cyclinE, sequence (P24864 whole entry partner): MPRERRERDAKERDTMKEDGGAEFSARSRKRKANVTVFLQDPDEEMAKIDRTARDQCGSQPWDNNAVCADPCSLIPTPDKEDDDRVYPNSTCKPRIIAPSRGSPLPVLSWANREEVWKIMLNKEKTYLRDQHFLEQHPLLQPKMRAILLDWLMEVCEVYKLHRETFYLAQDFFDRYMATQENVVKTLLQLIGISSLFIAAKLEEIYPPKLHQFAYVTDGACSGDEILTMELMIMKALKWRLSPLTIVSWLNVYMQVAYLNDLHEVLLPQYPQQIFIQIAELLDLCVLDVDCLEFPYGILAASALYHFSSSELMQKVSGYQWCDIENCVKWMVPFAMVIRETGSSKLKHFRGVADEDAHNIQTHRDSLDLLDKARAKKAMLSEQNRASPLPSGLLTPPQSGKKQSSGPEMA
Protocol: as §1

NEK1 = molecular target: T2, NEK1 (Homo sapiens, UniProt Q96PY6); assay: Kinome profiling NEK1; conditions: read-out: Inhibitory activity NEK1; for inhibition at 0.1 µM: 100 nM
T2 sequence (Q96PY6 1-1258): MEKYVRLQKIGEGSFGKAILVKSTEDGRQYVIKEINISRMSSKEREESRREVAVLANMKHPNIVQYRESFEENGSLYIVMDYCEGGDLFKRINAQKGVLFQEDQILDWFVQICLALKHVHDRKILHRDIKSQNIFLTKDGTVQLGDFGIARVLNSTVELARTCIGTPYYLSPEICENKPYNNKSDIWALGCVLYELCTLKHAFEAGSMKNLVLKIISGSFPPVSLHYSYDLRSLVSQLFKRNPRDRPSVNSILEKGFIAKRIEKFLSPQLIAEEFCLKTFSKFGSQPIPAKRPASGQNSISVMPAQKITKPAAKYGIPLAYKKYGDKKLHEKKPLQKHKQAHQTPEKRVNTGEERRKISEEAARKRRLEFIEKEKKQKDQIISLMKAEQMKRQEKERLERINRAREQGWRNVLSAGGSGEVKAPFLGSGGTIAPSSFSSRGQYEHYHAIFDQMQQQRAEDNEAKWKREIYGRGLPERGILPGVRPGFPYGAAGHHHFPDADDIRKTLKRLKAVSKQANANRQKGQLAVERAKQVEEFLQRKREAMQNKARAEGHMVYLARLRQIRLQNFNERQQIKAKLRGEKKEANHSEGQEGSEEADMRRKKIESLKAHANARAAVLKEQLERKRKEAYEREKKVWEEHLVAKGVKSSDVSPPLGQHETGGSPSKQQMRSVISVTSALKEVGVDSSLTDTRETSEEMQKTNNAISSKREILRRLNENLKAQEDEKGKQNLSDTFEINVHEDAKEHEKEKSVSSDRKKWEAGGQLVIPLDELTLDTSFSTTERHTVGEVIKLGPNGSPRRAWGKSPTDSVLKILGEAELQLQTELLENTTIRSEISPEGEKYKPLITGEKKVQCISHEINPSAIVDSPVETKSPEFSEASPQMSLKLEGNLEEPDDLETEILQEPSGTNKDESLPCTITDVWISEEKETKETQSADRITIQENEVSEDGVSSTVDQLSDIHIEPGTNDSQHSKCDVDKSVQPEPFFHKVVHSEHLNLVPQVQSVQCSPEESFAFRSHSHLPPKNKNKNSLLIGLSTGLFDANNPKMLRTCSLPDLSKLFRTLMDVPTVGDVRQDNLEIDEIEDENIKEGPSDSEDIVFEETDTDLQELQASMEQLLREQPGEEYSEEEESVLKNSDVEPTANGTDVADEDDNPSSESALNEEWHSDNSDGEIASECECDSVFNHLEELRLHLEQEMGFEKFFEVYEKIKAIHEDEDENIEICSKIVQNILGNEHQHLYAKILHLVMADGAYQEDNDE
Protocol: as §1

BTK = BTK (Homo sapiens, UniProt Q06187); assay: Kinome profiling BTK; conditions: read-out: Inhibitory activity BTK; for inhibition at 0.1 µM: 100 nM
Protocol: as §1

ROS = ROS (Homo sapiens, UniProt P08922); assay: Kinome profiling ROS; conditions: read-out: Inhibitory activity ROS; for inhibition at 0.1 µM: 100 nM
Protocol: as §1

[1] = read-out: Inhibitory activity ABL1
[2] = Table 4, read-out: Inhibitory Activity ABL1

| Compound | inhibition at 0.1 µM (PAK6) [%] | inhibition at 1 µM (PAK6) [%] | inhibition at 0.1 µM (AURORA-A) [%] | inhibition at 1 µM (AURORA-A) [%] | inhibition at 0.1 µM (PI3-K-δ) [%] | inhibition at 1 µM (PI3-K-δ) [%] | inhibition at 0.1 µM (PIM-2) [%] | inhibition at 1 µM (PIM-2) [%] | inhibition at 0.1 µM (SYK) [%] | inhibition at 1 µM (SYK) [%] | inhibition at 0.1 µM (PI4-K-β) [%] | inhibition at 1 µM (PI4-K-β) [%] | inhibition at 0.1 µM (NEK7) [%] | inhibition at 1 µM (NEK7) [%] | inhibition at 0.1 µM (ABL1; [1]) [%] | inhibition at 1 µM (ABL1; [1]) [%] | inhibition at 0.1 µM (DAPK1) [%] | inhibition at 1 µM (DAPK1) [%] | inhibition at 0.1 µM (CDK3/cyclinE) [%] | inhibition at 1 µM (CDK3/cyclinE) [%] | also measured |
| --- | --- | --- | --- | --- | --- | --- | --- | --- | --- | --- | --- | --- | --- | --- | --- | --- | --- | --- | --- | --- | --- |
| COc1cc(-c2cc(-c3ccc(N4CCNCC4)cc3)cnc2N)cc(OC)c1OC [Compound 15, 5-(4-(piperazin-1-yl)phenyl)-3-(3,4,5-trimethoxyphenyl)pyridin-2-amine] | 5 | 3 | 2 | 3 | 3 | 7 | 0 | 0 | 1 | -4 | 1 | 1 | 9 | 2 | 77 | 84 | 1 | 0 | 0 | 0 | inhibition at 0.1 µM (NEK1): 1%; inhibition at 1 µM (NEK1): 1%; inhibition at 0.1 µM (BTK): 3%; inhibition at 1 µM (BTK): 20%; inhibition at 0.1 µM (ROS): 1%; inhibition at 1 µM (ROS): 7% |
| COc1cc(-c2cc(-c3ccc(N4CCNCC4)cc3)cnc2C)cc(OC)c1OC [Compound 10, 1-(4-(6-methyl-5-(3,4,5-trimethoxyphenyl)pyridin-3-yl)phenyl)piperazine] | 1 | 5 | 2 | 3 | 8 | 7 | 0 | 0 | 0 | -1 | -10 | -15 | 4 | 3 | 56 | 93 | -1 | -1 | 2 | 2 | inhibition at 0.1 µM (ABL1; [2]): 56%; inhibition at 1 µM (ABL1; [2]): 93%; inhibition at 0.1 µM (NEK1): 2%; inhibition at 1 µM (NEK1): 1%; inhibition at 0.1 µM (BTK): 1%; inhibition at 1 µM (BTK): -2%; inhibition at 0.1 µM (ROS): 2%; inhibition at 1 µM (ROS): 2% |
